From patent US20250369032A1 (priority 2023, published 2025)
Where “and” joins values, the source holds several entries; their conditions need not be identical. Equal values may be shown once. Read-outs that look alike come from different tables or passages of the source.

Experiments:
alkaline phosphatase [1] = biological target: T1, alkaline phosphatase (Bos taurus, UniProt P19111)
Description: Two different dosing concentrations were evaluated, 10 μL of test chemical added to 90 μL of alkaline phosphatase reaction reagent and 50 μL of test chemical added to 50 μL of alkaline phosphatase reaction reagent; all aliquoted in 96-well plates.
• 1. Alkaline phosphatase reaction reagent (fresh, 1:100) • a. Take 4 mL of AP (1:10) stock solution, add to 36 mL PBS. Vortex mix and then invert to mix 10 times • 2. Prepare alkaline phosphatase reaction reagent for every condition • a. 200 μL AP (1:10) in 1.8 mL PBS • b. […] 200 μL AP (1:10) in 1.8 mL Acetone • 3. Prepare 96-well plates for dosing • 4. Prepare 96-well plates for PNPP reading (3 wells for each test chemical) • a. Aliquot with 200 μL PNPP
• 1. Set 1 • a. 10 μL chemical added to 90 μL AP reaction reagent • 2. Set 2 • a. 50 μL chemical added to 50 μL AP reaction reagent • 3. Incubate for 3 hours • a. To the prepared 96-well plate with 200 μL PNPP aliquoted, add 20 μL • b. […] To the prepared 96-well plate with 200 μL PNPP aliquoted, add 20 μL • b.
In our next study, we focused on ethanol and buffered saline (potassium chloride, potassium phosphate monobasic, sodium chloride, sodium phosphate dibasic) as our solvents.
• 1. Alkaline phosphatase reaction reagent • a. 1:100 • i. PBS: Take 400 μL of AP (1:10) stock solution, add to 3.6 mL PBS. Vortex mix and then invert to mix 10 times • ii. […] Vortex mix and then invert to mix 10 times • b. 1:1000 • i. PBS: Take 400 μL of AP (1:100) stock solution, add to 3.6 mL PBS. Vortex mix and then invert to mix 10 times • ii. […] Vortex mix and then invert to mix 10 times • 2. Prepare 0.5 mL microcentrifuge tubes for dosing • a. One set for room temperature, one set for 37° C. • 3. Prepare 96-well plates for PNPP reading (3 wells for each test chemical) • a. Aliquot with 200 μL PNPP
• 1. In each microcentrifuge tube for each condition, add 180 μL of the corresponding AP reaction reagent • 2. Add 20 μL of the test chemical to each microcentrifuge tube • 3. Incubate for 4 hours (one set at room temperature; one set at 37° C.) • 4. To prepared 96-well plates with 200 μL PNPP aliquoted, add 20 μL of each microcentrifuge tube to the corresponding well • 5.

skin = conditions: cited from earlier work
alkaline phosphatase [2] = biological target: T1, alkaline phosphatase; format: biochemical; parameters: purchased Sigma Aldrich, St. Louis, MO P0114 (original source); P7640 (second source, 'new AP' condition only)
[3] = system: endogenous skin phosphatase; format: biochemical, porcine; conditions: optical density compared to the naïve condition
Description: Our next studies involved applying the test substance (500 μL) directly to the epidermis side of previously frozen porcine skin (Spear Products, Coopersburg, PA) that is placed in a holder that only exposes the epidermis side for 30 minutes, adding phosphate buffered saline (PBS) with added sodium azide (metabolic inhibitor that ensure no viable tissue), then aliquoting into cuvettes to read at an optical density of 300 nm. […] So, at the end of the initial studies described above, almost out of frustration, we tried to probe for released phosphatase activity using p-Nitrophenyl phosphate disodium salt (PNPP; Sigma Aldrich, St. Louis, MO) substrate solution to detect any presence of phosphatase.
• 1. Thaw 2 pieces of frozen porcine skin • a. Punch out as many skin discs and mount in holders • 2. Label cuvettes (3 for each chemical)
• 1. Add 500 μL of test chemical to holder; incubate at room temperate for 30 minutes • 2. After 30 minutes, add 2 mL of PBS-Azide to both the holder containing the test chemical; forcefully pipette and re-pipette 10 times • 3. From the holder, aliquot 400 μL into 3 cuvettes; forcefully pipette and re-pipette 3 times before dispensing into cuvettes
Skin corrosion by GHS Category 1 dermal corrosive chemicals results in the disintegration of the epidermis into the dermis.

alkaline phosphatase [4] = biological target: T1, alkaline phosphatase; format: biochemical; parameters: purchased Sigma Aldrich, St. Louis, MO P0114 (original source); P7640 (second source, 'new AP' condition only); remark: listed apart in the source
Description: Our next study focused on an in vitro method of detecting the potential of dermal corrosives to inhibit nonspecific phosphatases that may be released from the skin. We decided to test pure […] instead of relying on endogenous skin phosphatase. Alkaline phosphatase (Sigma Aldrich, St. Louis, MO) was purchased and suspended to make the reaction reagent (10,000 units). […] We note that the ratio used was 0.1 g/ml or 10% chemical-which is far in excess of any pharmaceutical applications. We further note that pharmaceutical enzyme inhibition tests, studies an use involve highly specific active site binding and these assays are conducted at ratios of micrograms-femtograms per ml. These studies are done at these ranges because these are the realistic concentrations for drug applications and therapeutics. […] So when a 50 Kg human consumes the tables, the tissues will be exposed at a 5 mg/50 kg=0.1 mg/kg=0.0000001 g/ml.
Next two quantitative methods were evaluated: 1) using the discs parts from our OptiSafe™ test method and 2) directly into the 24-well plate.
• 1. Alkaline phosphatase reaction reagent • a. Take 1 vial of AP, add 1 mL of PBS, mix by pipette/re-pipette 10 times • b. To a 50 mL conical tube, add 1 mL of the AP solution prepared above and 40 mL of PBS • 2. Prepare two 24-well plates (1 with discs, 1 without discs) • 3. […] Aliquot 200 μL PNPP and PBS
• 1. Plate 1 (No Discs) • a. Add 1.25 mL from the prepared PBS-AP conical tube to each well (11 wells) • b. Add 100 μL of the test material to the well, mix with the same pipette tip, dispose and repeat for the rest of the test materials • c. Wrap the plate in saran wrap and place into the container • 2. Plate 2 (Discs) • a. Configure the 11 discs in the plate so the plate cover is stable • b. Add 1.25 mL from the prepared PBS-AP conical tube to each well (11 wells) • c. Add 100 μL of the test material to the center of the disc and repeat for the rest of the test materials • d. Put the plate cover on and place into the container • 3. […] Incubate for 1 hour
For the new study, the alkaline phosphatase was suspended in phosphate buffered saline (PBS) to make the reaction reagent. Then, 100 μL of the test chemical is added directly into the corresponding wells on a 24-well plate with 1.25 mL of alkaline phosphatase reaction reagent already aliquoted.
• 1. Alkaline phosphatase reaction reagent • a. Take 1 vial of AP, add 1 mL of PBS, mix by pipette/re-pipette 10 times • b. To a 50 mL conical tube, add 1 mL of the AP solution prepared above and 40 mL of PBS • 2. Prepare two 24-well plates • 3. […] Aliquot with 200 μL PNPP and PBS • 4. Prepare glass vials Repeat Procedure from Jan. […] 24-well plate • a. Add 1.25 mL from the prepared PBS-AP conical tube to each well (11 wells) • b. Add 100 μL of the test material to the well, mix with the same pipette tip, dispose and repeat for the rest of the test materials • c. Wrap the plate in saran wrap and place into the container • 2. […] To the prepared 96-well plate with 200 μL PNPP or PBS, add 20 μL from the 24-well plate • 4. Incubate for 1 hour • 5.
• 1. 24-well plate • a. Add 1.25 mL from the prepared PBS-AP conical tube to each well (11 wells) • b. Add 100 μL of the test material to the well, mix with the same pipette tip, dispose and repeat for the rest of the test materials • c. After 10 minutes, mix each well • 2.

porcine skin = conditions: R 1 and 2
Description: Our initial studies involved using fresh and frozen porcine skin “buttons”. These buttons were punched out of porcine skin (Spear Products, Cooopersburg, PA) using a […] biopsy punch tool. Three different kinds of skin buttons were prepared from fresh porcine skin, frozen porcine skin, and frozen porcine skin with the fatty layer removed. […] The next day, the tubes were taken out and vortexed and 500 μL of the solution was aliquoted into cuvettes to read at three different optical density wavelengths (OD190, OD290, OD300) to evaluate the best response.
• 1. Thaw 2 pieces of frozen porcine skin • 2. Punch out buttons: 24 buttons in each tube filled with 40 mL PBS-Azide
• 1. Plate layout for dosing:
• 1. Dose each tissue with 140 μL of test chemical • 2.
• 1. Take out of incubator and vortex pulse 3× • 2. Aliquot 500 μL to cuvette and read results at OD190, OD290, and OD300
There were three readings done at an optical density of 190, 290, and 300 nm to evaluate the best response. […] To address the variable exposure conditions, our next studies involved placing a larger porcine skin section into a holder that exposes only the epidermis side with no potential for test chemical exposure from the backside or through the sides.

[5] = 4 mL glass vials, 30 μL into 300 μL, 1:100, 4 hours room temperature, 3 mL PNPP 1 hour
[6] = 1:100, 20 μL into 180 μL, 0.5 mL microcentrifuge tubes, 4 hours RT, PNPP 60 min, 405 nm
[7] = average of R1-R3, 1:100, 20 μL into 180 μL, 4 hours RT, PNPP 60 min, 405 nm
[8] = fresh porcine skin, 140 μL, 18 hours at 37° C. in PBS-Azide
[9] = frozen porcine skin with fat layer removed
[10] = 10-minute test chemical exposure

T1 sequence (P19111 20-506): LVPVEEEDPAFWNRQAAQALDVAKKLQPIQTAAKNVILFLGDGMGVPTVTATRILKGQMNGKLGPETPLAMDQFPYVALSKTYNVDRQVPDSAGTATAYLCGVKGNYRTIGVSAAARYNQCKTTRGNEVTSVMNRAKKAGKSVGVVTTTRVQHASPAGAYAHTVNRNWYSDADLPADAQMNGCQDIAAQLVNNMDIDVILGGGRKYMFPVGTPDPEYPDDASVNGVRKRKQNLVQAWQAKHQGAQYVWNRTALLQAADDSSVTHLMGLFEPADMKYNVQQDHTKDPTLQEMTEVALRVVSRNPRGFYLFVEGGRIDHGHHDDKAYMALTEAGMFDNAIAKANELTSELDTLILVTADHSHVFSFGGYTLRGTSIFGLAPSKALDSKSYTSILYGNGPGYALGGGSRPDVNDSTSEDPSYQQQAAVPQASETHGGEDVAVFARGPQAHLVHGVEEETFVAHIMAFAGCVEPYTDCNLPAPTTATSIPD

SMILES: Cc1ccc(C(C)C)cc1O
- OD405 readings (FIG. 11D) (alkaline phosphatase [1]; [5]): 3.444 and 3.465 and 3.398
- in vivo GHS (skin; skin, chemical lists of the protocols): Cat. 1B/1C
- A1-Results R1 (alkaline phosphatase [2]; [6]): 0.211
- A1-Results R3 (alkaline phosphatase [2]; [6]): 0.272
- OD405 readings (FIG. 11B) (alkaline phosphatase [2]; [5]): 1.990 and 1.926
- A1-Results AVG (alkaline phosphatase [2]; [7]): 0.242
- prediction based on OD405 values (FIG. 6B) (alkaline phosphatase [2]; original alkaline phosphatase 1:1, 18 hours room temperature): incorrectly predicted
- OD405 readings (FIG. 6D) (alkaline phosphatase [2]; original alkaline phosphatase 1:100 (100 units), 100 μL into 1 mL, 18 hours room temperature, PNPP 1 hour): 0.991 and 0.974 and 1.167

SMILES: C=CCCC=C [1,5-Hexadiene]
- OD405 reading (FIG. 7A) (alkaline phosphatase [1]): 1.702
- OD405 reading (FIG. 7B) (alkaline phosphatase [1]): 2.947
- A1-Results R1 (alkaline phosphatase [2]; [6]): 3.502
- A1-Results R3 (alkaline phosphatase [2]; [6]): 3.498
- A1-Results AVG (alkaline phosphatase [2]; [7]): 3.496

SMILES: ClCCCCBr [1-Bromo-4-chlorobutane]
- OD405 reading (FIG. 9B) (alkaline phosphatase [1]): 0.799
- A1-Results R1 (alkaline phosphatase [2]; [6]): 3.387
- A1-Results R3 (alkaline phosphatase [2]; [6]): 3.502
- A1-Results AVG (alkaline phosphatase [2]; [7]): 3.464

SMILES: CC(=O)O [Acetic acid]
- percent of phosphatase measured (first reading) [3]: 19.1%
- percent of phosphatase measured (second reading) [3]: 18.6%
- percent of phosphatase measured, average [3]: 18.9%
- Corrosive (skin; rabbit, in vivo): Yes
- optical density readings (FIG. 3B) (alkaline phosphatase [4]): 0.104 and 0.129 and 0.101
- A1-Results AVG (alkaline phosphatase [2]): 0.096
- A1-Results R1 (alkaline phosphatase [2]): 0.096
- A1-Results R3 (alkaline phosphatase [2]): 0.096
- optical density readings (FIG. 3A) (alkaline phosphatase [2]): 0.106 and 0.102 and 0.103

SMILES: CN(C)CCCNCCCN [Dimethyldipropylenetriamine]
- OD190 (porcine skin; [8]): >3A
- OD290 (porcine skin; [8]): 0.922 and 1.016
- OD300 (porcine skin; [8]): 0.819 and 0.887
- OD190 (porcine skin; [9]): 0.610 and 0.594
- OD290 (porcine skin; [9]): 0.238 and 0.170
- OD300 (porcine skin; [9]): 0.162 and 0.118
- OD190 (porcine skin; frozen porcine skin): >3A
- OD290 (porcine skin; frozen porcine skin): 0.936 and 0.775
- OD300 (porcine skin; frozen porcine skin): 0.806 and 0.636
- percent of phosphatase measured (first reading) [3]: 23.5%
- percent of phosphatase measured (second reading) [3]: 17.7%
- percent of phosphatase measured, average [3]: 20.6%
- Corrosive (skin; Table 2): Yes
- 10-minute PNPP incubation readings (FIG. 5A) (alkaline phosphatase [4]; [10]): 3.449 and 3.502 and 3.500
- 18-hour PNPP incubation readings (FIG. 5D) (alkaline phosphatase [4]; [10]): 0.112 and 0.105 and 0.110
- prediction based on OD405 values (FIG. 6C) (alkaline phosphatase [4]; original alkaline phosphatase 1:10 dilution): mispredicted
- prediction based on OD405 values (FIG. 6D) (alkaline phosphatase [4]; original alkaline phosphatase 1:100 dilution): correctly predicted
- optical density readings (FIG. 4) (alkaline phosphatase [4]; repeat, without discs, 18 hours 37° C., PNPP 1 hour, 405 nm): 0.132 and 0.128 and 0.127
- optical density readings (FIG. 3A) (alkaline phosphatase [4]; with discs, 100 μL into 1.25 mL reaction reagent (10,000 units), 18 hours 37° C., PNPP 1 hour, 405 nm): 0.152 and 0.159 and 0.140
- A1-Results R1 (alkaline phosphatase [2]; [6]): 0.118
- A1-Results R3 (alkaline phosphatase [2]; [6]): 0.124
- 1-hour PNPP incubation readings (FIG. 5B) (alkaline phosphatase [2]; [10]): 0.352 and 0.283 and 0.333
- 4-hour PNPP incubation readings (FIG. 5C) (alkaline phosphatase [2]; [10]): 0.122 and 0.116 and 0.114
- A1-Results AVG (alkaline phosphatase [2]; [7]): 0.121
- optical density readings (FIG. 3B) (alkaline phosphatase [2]; without discs, 100 μL into 1.25 mL reaction reagent (10,000 units), 18 hours 37° C., PNPP 1 hour, 405 nm): 0.138 and 0.176 and 0.133
